# Source: PubChem BioAssay (NCI)
#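 Method: 48-hour compound exposure of cells in 96-well plates, five concentrations, linear interpolation of endpoints. GI50: concentration for 50% inhibition of growth. Definition used: TGI = concentration required for complete inhibition of growth.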
# What was measured:
# Experiment in all cases: NCI anticancer screen, dose series, 48 h
# [1] = test system: DU-145 prostate
# [2] = test system: K-562 leukemia
# [3] = test system: UACC-257 melanoma
# [4] = test system: SF-295 CNS
# [5] = test system: UO-31 renal
# [6] = test system: EKVX NSCLC
# [7] = test system: MDA-MB-231 breast
# [8] = test system: SNB-75 CNS
# [9] = test system: U251 CNS
# [10] = test system: MALME-3M melanoma
# [11] = test system: A549 NSCLC
# [12] = test system: RPMI-8226 leukemia
# [13] = test system: BT-549 breast
# [14] = test system: SF-268 CNS
# [15] = test system: SN12C renal
# [16] = test system: HCC-2998 colon
# [17] = test system: MDA-MB-435
# [18] = test system: OVCAR-4 ovarian
# [19] = test system: UACC-62 melanoma
# [20] = test system: SK-MEL-28 melanoma
# [21] = test system: T-47D breast
# [22] = test system: NCI/ADR-RES ovarian
# [23] = test system: KM12 colon
# [24] = test system: RXF 393 renal
# [25] = test system: HCT-116 colon
# [26] = test system: IGROV1 ovarian
# [27] = test system: MOLT-4 leukemia
# [28] = test system: NCI-H226 lung
# [29] = test system: OVCAR-3 ovarian
# [30] = test system: COLO 205 colon
# [31] = test system: HCT-15 colon
# [32] = test system: HOP-62 NSCLC
# [33] = test system: M14 melanoma
# [34] = test system: A498 renal
# [35] = test system: HS 578T breast
# [36] = test system: LOX IMVI melanoma
# [37] = test system: CAKI-1 renal
# [38] = test system: NCI-H522 lung
# [39] = test system: SF-539 CNS
# [40] = test system: OVCAR-5 ovarian
# [41] = test system: SNB-19 CNS
# [42] = test system: HOP-92 NSCLC
# [43] = test system: SK-MEL-5 melanoma
# [44] = test system: HL-60(TB) leukemia
# [45] = test system: OVCAR-8 ovarian
# [46] = test system: PC-3 prostate
# [47] = test system: ACHN renal
# [48] = test system: SW-620 colon
# [49] = test system: SK-MEL-2 melanoma
# [50] = test system: SR leukemia
# [51] = test system: NCI-H460 lung
# [52] = test system: SK-OV-3 ovarian
# [53] = test system: NCI-H23 lung
# [54] = test system: HT29 colon
# [55] = test system: 786-0 renal
# [56] = test system: TK-10 renal
# [57] = test system: MCF7 breast
# [58] = test system: CCRF-CEM leukemia
structure (smiles),measurement,setting,value
C[N+](C)=C/C=C(\Cl)c1ccc2ccccc2c1,TGI,[1],28.8 µM
same,TGI,[2],> 33.2 µM
same,TGI,[3],36.8 µM
same,TGI,[4],33.8 µM
same,TGI,[5],32.6 µM
same,TGI,[6],60.1 µM
same,TGI,[7],28.8 µM
same,TGI,[8],> 58.2 µM
same,TGI,[9],27.8 µM
same,TGI,[10],27.8 µM
same,TGI,[11],> 100 µM
same,TGI,[12],14.6 µM
same,TGI,[13],38.6 µM
same,TGI,[14],67 µM
same,TGI,[15],50 µM
same,TGI,[16],20.7 µM
same,TGI,[17],36 µM
same,TGI,[18],11.6 µM
same,TGI,[19],29.9 µM
same,TGI,[20],11.1 µM
same,TGI,[21],48.3 µM
same,TGI,[22],17.3 µM
same,TGI,[23],32.3 µM
same,TGI,[24],47.9 µM
same,TGI,[25],9.79 µM
same,TGI,[26],34.9 µM
same,TGI,[27],3.67 µM
same,TGI,[28],41.4 µM
same,TGI,[29],13.4 µM
same,TGI,[30],41.4 µM
same,TGI,[31],11.2 µM
same,TGI,[32],35 µM
same,TGI,[33],23.2 µM
same,TGI,[34],> 100 µM
same,TGI,[35],> 100 µM
same,TGI,[36],12.8 µM
same,TGI,[37],25 µM
same,TGI,[38],67.8 µM
same,TGI,[39],58.7 µM
same,TGI,[40],39.8 µM
same,TGI,[41],38.5 µM
same,TGI,[42],53.3 µM
same,TGI,[43],36.5 µM
same,TGI,[44],38.5 µM
same,TGI,[45],31.6 µM
same,TGI,[46],43.5 µM
same,TGI,[47],28.5 µM
same,TGI,[48],29.2 µM
same,TGI,[49],59.9 µM
same,TGI,[50],4.26 µM
same,TGI,[51],57.6 µM
same,TGI,[52],38.2 µM
same,TGI,[53],17.1 µM
same,TGI,[54],28.4 µM
same,TGI,[55],28.9 µM
same,TGI,[56],33.4 µM
same,TGI,[57],> 73.4 µM
Cn1cc(C2=C(c3cn(CCSC(=N)N)c4ccccc34)C(=O)NC2=O)c2ccccc21,GI50,[1],3.94 µM
same,TGI,[1],7.81 µM
same,GI50,[2],1.87 µM
same,TGI,[2],6.1 µM
same,GI50,[3],3.85 µM
same,TGI,[3],7.79 µM
same,GI50,[4],3.47 µM
same,TGI,[4],7.39 µM
same,GI50,[5],3.63 µM
same,TGI,[5],7.71 µM
same,GI50,[7],4.12 µM
same,TGI,[7],8.29 µM
same,GI50,[8],1.49 µM
same,TGI,[8],5.84 µM
same,GI50,[9],2.91 µM
same,TGI,[9],6.32 µM
same,GI50,[10],4.08 µM
same,TGI,[10],7.83 µM
same,GI50,[11],3.94 µM
same,TGI,[11],8.18 µM
same,GI50,[12],4.18 µM
same,TGI,[12],10.1 µM
same,GI50,[58],1.38 µM
same,TGI,[58],12.7 µM
same,GI50,[13],4.11 µM
same,TGI,[13],8.31 µM
same,GI50,[14],3.91 µM
same,TGI,[14],8.18 µM
same,GI50,[15],2.8 µM
same,TGI,[15],6.37 µM
same,GI50,[16],4.13 µM
same,TGI,[16],8.07 µM
same,GI50,[17],1.73 µM
same,TGI,[17],5.25 µM
same,GI50,[18],3.88 µM
same,TGI,[18],8.96 µM
same,GI50,[19],3.94 µM
same,TGI,[19],7.43 µM
same,GI50,[20],3.53 µM
same,TGI,[20],7.06 µM
same,GI50,[21],3.24 µM
same,TGI,[21],8.25 µM
same,GI50,[22],13.2 µM
same,TGI,[22],25 µM
same,GI50,[23],3.13 µM
same,TGI,[23],6.57 µM
same,GI50,[24],3.56 µM
same,TGI,[24],8.23 µM
same,GI50,[25],1.45 µM
same,TGI,[25],5.77 µM
same,GI50,[26],4.92 µM
same,TGI,[26],9.46 µM
same,GI50,[27],1.98 µM
same,TGI,[27],7.95 µM
same,GI50,[28],4.49 µM
same,TGI,[28],12.2 µM
same,GI50,[29],3.37 µM
same,TGI,[29],6.74 µM
same,GI50,[30],1.13 µM
same,TGI,[30],4.52 µM
same,GI50,[31],5.21 µM
same,TGI,[31],11.9 µM
same,GI50,[32],3.81 µM
same,TGI,[32],7.98 µM
same,GI50,[33],3.74 µM
same,TGI,[33],8.01 µM
same,GI50,[34],4.22 µM
same,TGI,[34],8.95 µM
same,GI50,[35],3.24 µM
same,TGI,[35],10.4 µM
same,GI50,[36],3.02 µM
same,TGI,[36],6.52 µM
same,GI50,[37],4.47 µM
same,TGI,[37],9.25 µM
same,GI50,[38],1.88 µM
same,TGI,[38],5.64 µM
same,GI50,[39],3.63 µM
same,TGI,[39],7.62 µM
same,GI50,[40],6.25 µM
same,TGI,[40],14.1 µM
same,GI50,[41],4.74 µM
same,TGI,[41],10.3 µM
same,GI50,[42],2.38 µM
same,TGI,[42],8.78 µM
same,GI50,[43],3.83 µM
same,TGI,[43],7.43 µM
same,GI50,[44],4.65 µM
same,TGI,[44],10 µM
same,GI50,[45],3.95 µM
same,TGI,[45],8.91 µM
same,GI50,[46],3.51 µM
same,TGI,[46],8.4 µM
same,GI50,[47],3.81 µM
same,TGI,[47],7.74 µM
same,GI50,[48],3.25 µM
same,TGI,[48],7.05 µM
same,GI50,[49],2.79 µM
same,TGI,[49],6.22 µM
same,GI50,[50],1.23 µM
same,TGI,[50],6.87 µM
same,GI50,[51],3.84 µM
same,TGI,[51],7.69 µM
same,GI50,[52],2.79 µM
same,TGI,[52],6.56 µM
same,GI50,[53],3.53 µM
same,TGI,[53],7.92 µM
same,GI50,[54],1.31 µM
same,TGI,[54],5.28 µM
same,GI50,[55],4.29 µM
same,TGI,[55],10.7 µM
same,GI50,[56],3.15 µM
same,TGI,[56],6.54 µM
same,GI50,[57],1.19 µM
same,TGI,[57],4.55 µM
